Measured values: patent US20260375265A1, “COMPOSITION FOR ALLEVIATING SKIN PIGMENTATION” (LG H & H CO., LTD., priority 2023, published 2026)

What was measured:
[1] = system: dark skin tone; test: Human application trial: customized prescription for high-risk group of dark skin tone; format: in vivo; conditions: twice daily, four weeks
Procedure: Accordingly, it was aimed to provide substances capable of increasing the improvement efficiency of dark skin tone according to the risk level of developing dark skin tone.
(§1) After receiving approval from the Institutional Review Board (IRB, Korea) (LG-SKEV-2022-09-A), the study was conducted in accordance with the standard operating guidelines and clinical trial standards of the Institutional Review Board of LG Household & Health Care Co., Ltd. Nine healthy adult subjects aged 20-50 with no apparent skin abnormalities were selected.
Based on the genetic polymorphic markers associated with skin tone brightness in Table 2, subjects were classified into low-risk and high-risk groups according to their risk level of developing dark skin tone as follows. • Risk scores (the sum of each genotype multiplied by its respective effect size (β)) for the five genetic markers were less than −0.193→low-risk group (n=4). • Risk scores (the sum of each genotype multiplied by its respective effect size (β)) for the five genetic markers were −0.193 or higher→high-risk group (n=5).
The same as in Example 4-2 […]
PIE's Janus3 was used to photograph the front and side of the face under normal, polarized, and UV light. […] The pigmentation improvement was calculated by determining the increase in the skin tone brightness values after four weeks of use compared to the skin tone brightness values before use.

[2] = system: PPARGC1B; test: qPCR of PPARGC1B mRNA expression in a-MSH-treated B16F10 cells; format: cell-based, mouse; conditions: B16F10, 10 nM a-MSH plus substance, one day, appropriate concentration; FIG. 3
Procedure: (§2) Screening was performed for substances that influence the expression of genes associated with spot pigmentation among various substances having the skin-improving efficacy. Changes in the expression of genes associated with spot pigmentation were examined in cells where melanin synthesis was increased by a-MSH, and substances that restored the expression to the level before a-MSH treatment were selected.
(§3) Mouse melanoma cells (B16F10; CRL-6475) were purchased from ATCC for use. The purchased cells were cultured in a 37 °C/5% CO2 incubator using a medium prepared by supplementing Dulbecco's Modified Eagle Medium (DMEM-GIBCO) with 10% fetal bovine serum (FBS) and 1% penicillin/streptomycin.
(§4) To analyze the efficacy on changes in the mRNA expression of genes associated with skin spot pigmentation, mouse melanoma cells were seeded at […] cells/well in 6-well plates and cultured in a 37 °C/5% CO2 incubator for one day. After replacing the medium with a fresh medium, 10 nM α-MSH was treated, and substances were added to the medium at appropriate concentrations and cultured for one day under the same conditions. Thereafter, total RNA was obtained using AccuPrep Universal RNA Extraction Kit (Bioneer, K-3140), and cDNA was synthesized using AccuPower® RocketScript™ Cycle (Bioneer, K-2202). The expression level of each gene was analyzed by performing qPCR using synthesized cDNA and taqman probe (assay ID: ASCL2-Mm01268891_m1, PPARGC1B-Mm00504730_m1, TP63-Hs00978349_m1).

[3] = system: scattered dark spots on skin; test: Human application trial: customized prescription for high-risk group of scattered dark spots; format: in vivo; conditions: twice daily, four weeks
Procedure: Accordingly, it was aimed to provide specific substances capable of increasing the improvement efficiency of scattered dark spots according to the risk level of developing scattered dark spots on skin, dark skin tone, and/or spot pigmentation.
as §1, with “Ten” for “Nine”, “selected. […]” for “selected.”
PIE's Janus3 was used to photograph the front and side of the face under normal, polarized, and UV light. […] The pigmentation improvement rate (%) was calculated by determining the percentage reduction in the pigmentation values after four weeks of use compared to the polarized pigmentation values before use.

[4] = system: KITLG; test: qPCR of KITLG mRNA expression in UVB-irradiated human keratinocytes (HaCaT); format: cell-based; conditions: UVB 30 mJ/cm^2 (312 nm), substance one day, appropriate concentration, FIG. 2, UVB alone increased
Procedure: as §2, with “dark skin tone” for “spot pigmentation”, “having” for “having the”
To analyze the efficacy on changes in the mRNA expression of genes associated with dark skin tone, RT-qPCR experiment was conducted. Cells were cultured in a 37 °C/5% CO2 incubator for one day. To assess the change of KITLG expression by UVB, the medium of human keratinocytes (HaCaT) was replaced with PBS, and 30 mJ/cm^2 of UVB (312 nm) was irradiated using an RMX 3W (Vilber Lourmat) instrument. The medium was replaced with a fresh medium and cultured for one day. To assess the change in KITLG expression by treatment with substances, the cells were treated with appropriate concentrations of substances along with a fresh medium and cultured for one day. […] The expression level of each gene was analyzed by performing qPCR using synthesized cDNA and taqman probe (assay ID: OCA2-Mm00498969_m1, BNC2-Mm00556284_m1, RAB32-Mm00458960_m1, KITLG-Hs00241497_m1).

[5] = system: RAB11FIP2; test: qPCR of RAB11FIP2 mRNA expression in UVB-irradiated mouse melanoma cells; format: cell-based; conditions: B16F10, UVB 30 mJ/cm^2 (312 nm), substance one day, appropriate concentration; FIG. 1; UVB alone decreased
Procedure: as §2, with “scattered dark spots on skin” for “spot pigmentation”, “having” for “having the”, “UVB exposure,” for “a-MSH,”, “UVB exposure” for “a-MSH treatment”
as §3
To analyze the efficacy on changes in the mRNA expression of genes associated with scattered dark spots on skin, mouse melanoma cells were seeded at 2*10^5 cells/well in 6-well plates and cultured in a 37 °C/5% CO2 incubator for one day. After replacing the medium with PBS, 30 mJ/cm^2 of UVB (312 nm) was irradiated using an RMX 3W (Vilber Lourmat) instrument. Substances were added to the medium at appropriate concentrations and cultured for one day under the same conditions. […] The expression level of each gene was analyzed by performing qPCR using synthesized cDNA and taqman probe (assay ID: AKAP1-Mm00501539_m1, RAB11FIP2-Mm01261268_m1, PPARGC1B-Mm00504730_m1).

[6] = system: mouse melanoma cells; test: Inhibition of melanin production increased by UVB (scattered dark spots); format: cell-based; conditions: light or radiation study, 48 h, 25 ppm DIPA alone, UVB 30 mJ/cm^2, two days, FIG. 4, read-out: reduction of melanin production (Y)
Procedure: In detail, mouse melanoma cells were seeded at 2*10^5 cells/well in 6-well plates and cultured in a 37 °C/5% CO2 incubator for one day, followed by irradiation with 30 mJ/cm^2 of UVB (312 nm). Each of media comprising appropriate concentrations and combinations of substances was added and cultured again in a 37 °C/5% CO2 incubator for two days to determine whether or not the substances inhibited the melanin production increased by UVB. Cells attached to the plates were collected in PBS and centrifuged to obtain cell pellets. The cell pellets were visually inspected and photographed. The cell pellets were dissolved in a 1 N NaOH (sodium hydroxide) solution comprising 10% dimethyl sulfoxide (DMSO) at 80 °C for 10 minutes, and placed in a 96-well plate, and absorbance at 405 nm was measured using an Epoch (Biotek) instrument. Melanin was quantified using the measured absorbance and normalized to the sample protein concentration to determine melanin concentration. The inhibition rate of melanin production of the sample was calculated as a ratio of the melanin concentration of the sample treatment group with respect to the melanin concentration increased by UVB.
E=(X+Y)−(X*Y/100) Colby equation

[7] = general description; cited from earlier work
[8] = system: PPARGC1B; test: qPCR of PPARGC1B mRNA expression in UVB-irradiated mouse melanoma cells; format: cell-based; conditions: B16F10, UVB 30 mJ/cm^2 (312 nm), substance one day, appropriate concentration; FIG. 1; UVB alone decreased
Procedure: as §2, with “scattered dark spots on skin” for “spot pigmentation”, “having” for “having the”, “UVB exposure,” for “a-MSH,”, “UVB exposure” for “a-MSH treatment”
as §3
To analyze the efficacy on changes in the mRNA expression of genes associated with scattered dark spots on skin, mouse melanoma cells were seeded at 2*10^5 cells/well in 6-well plates and cultured in a 37 °C/5% CO2 incubator for one day. After replacing the medium with PBS, 30 mJ/cm^2 of UVB (312 nm) was irradiated using an RMX 3W (Vilber Lourmat) instrument. Substances were added to the medium at appropriate concentrations and cultured for one day under the same conditions. Thereafter, total RNA was obtained using AccuPrep Universal RNA Extraction Kit (Bioneer, K-3140), and cDNA was synthesized using AccuPower® RocketScript Cycle (Bioneer, K-2202). The expression level of each gene was analyzed by performing qPCR using synthesized cDNA and taqman probe (assay ID: AKAP1-Mm00501539_m1, RAB11FIP2-Mm01261268_m1, PPARGC1B-Mm00504730_m1).

[9] = general description; very acidic; concentration not given; cited from earlier work
[10] = system: ASCL2; test: qPCR of ASCL2 mRNA expression in a-MSH-treated B16F10 cells; format: cell-based, mouse; conditions: B16F10, 10 nM a-MSH plus substance, one day, appropriate concentration; FIG. 3
Procedure: as §2, §3
as §4, with “Thereafter, total RNA was obtained using AccuPrep Universal RNA Extraction Kit (Bioneer, K-3140), and cDNA was synthesized using AccuPower® RocketScript™ Cycle (Bioneer, K-2202).” left out

[11] = 8% vitamin C essence, high-risk group (n=5)

For `O=C1O[C@H]([C@@H](O)CO)C(O)=C1O` [ascorbic acid], which “pigmentation improvement in the high-risk group” value [1, 11] is on record?
The value was “did not improve pigmentation”.

What about the “pigmentation improvement in the low-risk group” value ([1]; low-risk group (n=4), FIGS. 12, 13) of the same molecule?
Its value is “slightly improved pigmentation”.

What about the “change of PPARGC1B expression” value [2] of the same molecule?
Its value is “increased”.

What about the “pigmentation improvement in the high-risk group” value [3, 11] of the same molecule?
Its value is “did not improve pigmentation”.

What about the “pigmentation improvement in the low-risk group” value ([3]; low-risk group (n=5), FIGS. 10, 11) of the same molecule?
The value was “did not improve pigmentation”.

With `O=c1cc(-c2ccccc2)oc2cc(O)cc(O)c12` [chrysin, 5,7-dihydroxyflavone] as the molecule, how does the “change of KITLG expression” value [4] read?
The value was “decreasing”.

Which “change of RAB11FIP2 expression” value [5] does the source give for `CC(C)OC(=O)CCCCC(=O)OC(C)C` [diisopropyl adipate (DIPA), diisopropyl adipate] here?
Its value is “increasing”.

What about the inhibition at 25 ppm [6] of the same molecule?
Its inhibition at 25 ppm is ~1.5%.

What does the source list for `NC(=O)c1cccnc1` [niacinamide, reference compound]?
solubility in water [7]: dissolves well in water; change of PPARGC1B expression [8]: increased

Which “change of PPARGC1B expression” value [8] does the source give for `O=C(O)c1ccccc1O` [salicylic acid, reference compound] here?
The value was “increased”.

What about the pH [9] of the same molecule?
Its pH is 2.4.

For tocopherol, which “change of ASCL2 expression” value [10] is on record?
The value was “decreasing”.
